For 25 molecules, Ki results are on record in ChEMBL document CHEMBL2046329, “Furin inhibitors: importance of the positive formal charge and beyond” (Bioorg Med Chem, 2012).

Residues, ends and D or L forms follow the SMILES beside them.

The target in the assay is Furin (Homo sapiens, UniProt P09958). Nature of the assay: Inhibition of furin.

Usually Ki stands for the dissociation constant of the complex between target and ligand, obtained from inhibition or displacement. Low values mean a stronger hold on the target, high ones a looser hold on the target.

Sequence of Furin (P09958 whole entry): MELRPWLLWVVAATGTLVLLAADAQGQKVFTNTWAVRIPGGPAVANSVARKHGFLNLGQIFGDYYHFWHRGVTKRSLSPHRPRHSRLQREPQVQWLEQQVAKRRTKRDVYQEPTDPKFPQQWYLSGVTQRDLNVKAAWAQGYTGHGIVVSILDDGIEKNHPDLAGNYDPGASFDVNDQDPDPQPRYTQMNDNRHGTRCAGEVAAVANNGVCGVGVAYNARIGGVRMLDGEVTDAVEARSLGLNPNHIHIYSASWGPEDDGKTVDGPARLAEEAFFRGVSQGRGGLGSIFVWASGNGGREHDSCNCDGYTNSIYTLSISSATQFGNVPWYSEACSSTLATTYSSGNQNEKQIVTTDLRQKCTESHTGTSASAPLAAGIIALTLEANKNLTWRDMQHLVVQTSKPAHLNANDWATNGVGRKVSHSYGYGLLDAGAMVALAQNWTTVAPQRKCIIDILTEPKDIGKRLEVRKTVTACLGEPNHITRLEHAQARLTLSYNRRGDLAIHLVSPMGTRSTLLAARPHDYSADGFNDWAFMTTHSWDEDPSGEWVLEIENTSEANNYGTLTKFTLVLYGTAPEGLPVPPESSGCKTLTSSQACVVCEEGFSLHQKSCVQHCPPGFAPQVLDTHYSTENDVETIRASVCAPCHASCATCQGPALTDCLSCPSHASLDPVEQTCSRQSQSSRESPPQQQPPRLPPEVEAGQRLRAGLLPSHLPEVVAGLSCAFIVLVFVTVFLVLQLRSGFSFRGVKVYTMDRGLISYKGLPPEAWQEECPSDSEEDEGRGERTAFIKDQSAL

Regarding `CC(=O)N[C@@H](CC(C)C)C(=O)N[C@@H](CC(C)C)C(=O)N[C@@H](CCCN=C(N)N)C(=O)N[C@H](C(=O)N[C@@H](CCCCN)C(=O)N[C@@H](CCCN=C(N)N)C(=O)O)C(C)C`, the affinity, expressed as Ki, was 3500 nM. Then `CC(C)[C@H](NC(=O)[C@H](CCCN=C(N)N)NCC(=O)Oc1ccccc1)C(=O)N[C@@H](CCCN=C(N)N)C(=O)NCCCN`, with 3020 nM; and `CC(C)[C@H](NC(=O)[C@H](CCCNC(=N)N)NCC(=O)Oc1ccccc1)C(=O)N[C@@H](CCCNC(=N)N)C(=O)NCCCNC(=N)N`, with 63 nM. In turn, `CC(C)[C@H](NC(=O)[C@H](CCCNC(=N)N)NCC(=O)Oc1ccccc1)C(=O)N[C@@H](CCCNC(=N)N)C(=O)NCCCCN` yielded a Ki of 7490 nM. Consider `CC(C)[C@H](NC(=O)[C@H](CCCNC(=N)N)NCC(=O)Oc1ccccc1)C(=O)N[C@@H](CCCNC(=N)N)C(=O)NCCCCNC(=N)N`, for which the Ki was found to be 78 nM.

Turning to `CC(C)[C@H](NC(=O)[C@H](CCCNC(=N)N)NCC(=O)Oc1ccccc1)C(=O)N[C@@H](CCCNC(=N)N)C(=O)NCCCCCN`, the Ki amounted to 553 nM.

`CC(C)[C@H](NC(=O)[C@H](CCCN=C(N)N)NCC(=O)Oc1ccccc1)C(=O)N[C@@H](CCCN=C(N)N)C(=O)NCCCCCN=C(N)N` showed a Ki of 1070 nM.

As to `CCc1ccc(NC(=O)[C@H](CCCNC(=N)N)NC(=O)[C@@H](NC(=O)[C@H](CCCNC(=N)N)NCC(=O)Oc2ccccc2)C(C)C)cc1`, the inhibition constant (Ki) stood at 627 nM. On to `CC(C)[C@H](NC(=O)[C@H](CCCNC(=N)N)NCC(=O)Oc1ccccc1)C(=O)N[C@@H](CCCNC(=N)N)C(=O)Nc1ccc(CNC(=N)N)cc1`, for which affinity was put at a Ki of 1430 nM.

Turning to `CC(C)[C@H](NC(=O)[C@H](CCCN=C(N)N)NCC(=O)Oc1ccccc1)C(=O)N[C@@H](CCCN=C(N)N)C(=O)Nc1cccc(CN)c1`, the Ki is 1320 nM. This Ki and that of the molecule before are within 1.5-fold of each other. Molecule `CC(C)[C@H](NC(=O)[C@H](CCCN=C(N)N)NCC(=O)Oc1ccccc1)C(=O)N[C@@H](CCCN=C(N)N)C(=O)Nc1cccc(CN=C(N)N)c1` yielded a Ki of 2730 nM. This Ki is about 2.1-fold higher than that of the molecule before. For `CC(C)[C@H](NC(=O)[C@H](CCCNC(=N)N)NCC(=O)Oc1ccccc1)C(=O)N[C@@H](CCCNC(=N)N)C(=O)NC1CCNCC1` the value was 9710 nM; for `CC(C)[C@H](NC(=O)[C@H](CCCN=C(N)N)NCC(=O)Oc1ccccc1)C(=O)N[C@@H](CCCN=C(N)N)C(=O)NC1CCN(C(=N)N)CC1`, 53 nM; for `CCCCCCCCCC(=O)N[C@@H](CCCN=C(N)N)C(=O)N[C@H](C(=O)N[C@@H](CCCN=C(N)N)C(=O)Nc1ccc(C(=N)N)cc1)C(C)C`, 1.6 nM.

Take `CC(=O)N[C@@H](CCCNC(=N)N)C(=O)N[C@H](C(=O)N[C@@H](CCCNC(=N)N)C(=O)Nc1ccc(C(=N)N)cc1)C(C)C`: affinity was put at a Ki of 1 nM.

On to `CCCCCCCCCC(=O)N[C@@H](CCCN=C(N)N)C(=O)N[C@H](C(=O)N[C@@H](CCCCN)C(=O)Nc1ccc(C(=N)N)cc1)C(C)C`, for which the affinity, expressed as Ki, was 3.3 nM. Against the preceding molecule, the Ki is about 3.3-fold higher. Regarding `CC(=O)N[C@@H](CC(C)C)C(=O)N[C@@H](CC(C)C)C(=O)N[C@@H](CCCN=C(N)N)C(=O)N[C@H](C(=O)N[C@@H](CCCCN)C(=O)N[C@@H](CCCN=C(N)N)C(N)=O)C(C)C`, affinity was put at a Ki of 1400 nM. Then `CC(C)C[C@H](NC(=O)[C@@H](N)CC(C)C)C(=O)N[C@@H](CCCNC(=N)N)C(=O)N[C@H](C(=O)N[C@@H](CCCCN)C(=O)N[C@@H](CCCNC(=N)N)C(N)=O)C(C)C`, with 800 nM. As to `CC(C)C[C@H](NC(=O)[C@@H](N)CC(C)C)C(=O)N[C@@H](CCCNC(=N)N)C(=O)N[C@H](C(=O)N[C@@H](CCCCN)C(=O)N[C@@H](CCCNC(=N)N)C(=O)O)C(C)C`, the affinity, expressed as Ki, was 420 nM. This Ki is about 1.9-fold lower than that of the molecule before. Then `NC(N)=NCCC[C@H](NC(=O)[C@H](CCCN=C(N)N)NC(=O)[C@H](CCCN=C(N)N)NC(=O)[C@H](CCCN=C(N)N)NC(=O)[C@H](CCCN=C(N)N)NC(=O)[C@@H](N)CCCN=C(N)N)C(=O)O`, with 114 nM. The molecule `CC(=O)N[C@@H](CC(C)C)C(=O)N[C@@H](CCCCN)C(=O)N[C@@H](CCCN=C(N)N)C(=O)N[C@H](C(=O)N[C@@H](CCCCN)C(=O)N[C@@H](CCCN=C(N)N)C(N)=O)C(C)C` (Ac-LKRVKR-NH2) yielded a Ki of 190 nM.

Molecule `CSCC[C@H](NC(=O)[C@H](CC(C)C)NC(C)=O)C(=O)N[C@@H](CCCNC(=N)N)C(=O)N[C@H](C(=O)N[C@@H](CCCCN)C(=O)N[C@@H](CCCNC(=N)N)C(N)=O)C(C)C` (Ac-LMRVKR-NH2) registered an inhibition constant Ki of 1900 nM. Molecule `CC(=O)N[C@@H](CC(C)C)C(=O)N[C@@H](Cc1ccc(O)cc1)C(=O)N[C@@H](CCCN=C(N)N)C(=O)N[C@H](C(=O)N[C@@H](CCCCN)C(=O)N[C@@H](CCCN=C(N)N)C(N)=O)C(C)C` (Ac-LYRVKR-NH2) yielded a Ki of 3400 nM. Against the preceding molecule, the Ki is about 1.8-fold higher. `N=C(N)NCCC[C@H](NC(=O)[C@H](CCCNC(=N)N)NC(=O)[C@H](CCCNC(=N)N)NC(=O)[C@@H](N)CCCNC(=N)N)C(=O)O` (H-RRRR-OH): the Ki was 6400 nM. This Ki is about 1.9-fold higher than that of the molecule before. For `N=C(N)NCCC[C@H](NC(=O)[C@H](CCCNC(=N)N)NC(=O)[C@H](CCCNC(=N)N)NC(=O)[C@H](CCCNC(=N)N)NC(=O)[C@@H](N)CCCNC(=N)N)C(=O)O` (H-RRRRR-OH) the value was 990 nM.
